Measured values taken from PubChem BioAssay AID248 (DTP/NCI, 2004).
Where “and” joins values, the source holds several entries; their conditions need not be identical. Equal entries are not always repeated. Inconclusive results and toxic doses are left out. Cut-off read from the data, not from the text of the source: active = T/C of 150% or more; inactive = T/C below 125%.

Tested on: L1210 leukemia ip in BDF1 mice, survival T/C
Assay: NCI In Vivo Anticancer Drug Screen. Data for tumor model L1210 Leukemia (intraperitoneal) in B6D2F1 (BDF1) mice
Settings: endpoint: mean survival time, higher = longer survival
In short: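 Read-out is survival time, reported as the treated-group measurement over the vehicle-control measurement.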

[1] = dose: 100.0 mg/kg/injection, schedule: Q04DX003 (ip), vehicle: saline
[2] = dose: 200.0 mg/kg/injection, schedule: Q04DX003 (ip), vehicle: saline
[3] = dose: 25.0 mg/kg/injection, schedule: Q01DX009 (ip), vehicle: Klucel (hydroxypropylcellulose) (HPC)
[4] = dose: 50.0 mg/kg/injection, schedule: Q01DX009 (ip), vehicle: Klucel (hydroxypropylcellulose) (HPC)
[5] = dose: 100.0 mg/kg/injection, schedule: Q04DX003 (ip), vehicle: saline with Tween-80
[6] = dose: 200.0 mg/kg/injection, schedule: Q04DX003 (ip), vehicle: saline with Tween-80
[7] = dose: 400.0 mg/kg/injection, schedule: Q04DX003 (ip), vehicle: saline with Tween-80
[8] = dose: 100.0 mg/kg/injection, schedule: Q01DX009 (ip), vehicle: Klucel (hydroxypropylcellulose) (HPC)
[9] = dose: 100.0 mg/kg/injection, schedule: Q04DX003 (ip), vehicle: Klucel (hydroxypropylcellulose) (HPC)
[10] = dose: 200.0 mg/kg/injection, schedule: Q01DX009 (ip), vehicle: Klucel (hydroxypropylcellulose) (HPC)
[11] = dose: 200.0 mg/kg/injection, schedule: Q04DX003 (ip), vehicle: Klucel (hydroxypropylcellulose) (HPC)
[12] = dose: 400.0 mg/kg/injection, schedule: Q01DX009 (ip), vehicle: Klucel (hydroxypropylcellulose) (HPC)
[13] = dose: 400.0 mg/kg/injection, schedule: Q04DX003 (ip), vehicle: Klucel (hydroxypropylcellulose) (HPC)

Measured: T/C

CCCCCC(CC)C(CC)CO (centres undefined)
inactive: dose: 15.0 mg/kg/injection, schedule: Q01DX001 (ip), vehicle: carboxymethylcellulose (CMC) 95 % of control | dose: 30.0 mg/kg/injection, schedule: Q01DX001 (ip), vehicle: carboxymethylcellulose (CMC) 96 % of control | dose: 60.0 mg/kg/injection, schedule: Q01DX001 (ip), vehicle: carboxymethylcellulose (CMC) 96 % of control

Cc1cncn1Cc1ccc([N+](=O)[O-])cc1
inactive: dose: 25.0 mg/kg/injection, schedule: Q01DX009 (ip), vehicle: saline 101 % of control and 102 % of control | dose: 25.0 mg/kg/injection, schedule: Q04DX002 (ip), vehicle: saline 106 % of control and 115 % of control | dose: 50.0 mg/kg/injection, schedule: Q01DX009 (ip), vehicle: saline 98 % of control and 108 % of control | dose: 50.0 mg/kg/injection, schedule: Q04DX002 (ip), vehicle: saline 97 % of control and 100 % of control | dose: 100.0 mg/kg/injection, schedule: Q01DX009 (ip), vehicle: saline 96 % of control

O=S(=O)(O)c1ccc(CCCCCCl)cc1
inactive: dose: 100.0 mg/kg/injection, schedule: Q01DX009 (ip), vehicle: saline sonified 107 % of control | [1] 95 % of control | dose: 200.0 mg/kg/injection, schedule: Q01DX009 (ip), vehicle: saline sonified 98 % of control | [2] 100 % of control | dose: 400.0 mg/kg/injection, schedule: Q01DX009 (ip), vehicle: saline sonified 101 % of control | dose: 400.0 mg/kg/injection, schedule: Q04DX003 (ip), vehicle: saline 96 % of control

NNC(=S)NCCc1ccccc1
inactive: [3] 101 % of control | [4] 105 % of control

N#CCc1ccccc1N(C(=O)CCl)C(=O)CCl
inactive: dose: 100.0 mg/kg/injection, schedule: Q01DX001 (ip), vehicle: saline sonified 98 % of control | dose: 200.0 mg/kg/injection, schedule: Q01DX001 (ip), vehicle: saline sonified 103 % of control | dose: 400.0 mg/kg/injection, schedule: Q01DX001 (ip), vehicle: saline sonified 103 % of control

Cc1ccnc(NS(=O)(=O)c2ccc(NC(=O)c3ccc(C(=O)Nc4ccc(S(=O)(=O)Nc5nccc(C)n5)cc4)cc3)cc2)n1
inactive: dose: 3.87 mg/kg/injection, schedule: Q01DX015 (ip), vehicle: methylcellulose (MC) 96 % of control | dose: 7.75 mg/kg/injection, schedule: Q01DX015 (ip), vehicle: methylcellulose (MC) 101 % of control | dose: 15.5 mg/kg/injection, schedule: Q01DX015 (ip), vehicle: methylcellulose (MC) 104 % of control | dose: 31.0 mg/kg/injection, schedule: Q01DX015 (ip), vehicle: methylcellulose (MC) 104 % of control | dose: 62.0 mg/kg/injection, schedule: Q01DX015 (ip), vehicle: methylcellulose (MC) 94 % of control | dose: 125.0 mg/kg/injection, schedule: Q01DX015 (ip), vehicle: methylcellulose (MC) 101 % of control | dose: 250.0 mg/kg/injection, schedule: Q01DX015 (ip), vehicle: methylcellulose (MC) 100 % of control | dose: 500.0 mg/kg/injection, schedule: Q01DX015 (ip), vehicle: methylcellulose (MC) 102 % of control

C=C(C)C1(CCCC)C(=O)NC(=S)NC1=O
inactive: dose: 75.0 mg/kg/injection, schedule: Q01DX001 (ip), vehicle: saline 102 % of control | dose: 150.0 mg/kg/injection, schedule: Q01DX001 (ip), vehicle: saline 95 % of control

N#CC(C#N)=NNc1ccc(S(=O)(=O)c2ccc(NN=C(C#N)C#N)cc2)cc1
inactive: [5] 103 % of control | [6] 97 % of control | [7] 97 % of control

COc1ccccc1NC(=O)Nc1cccc(C(C)=O)c1
inactive: dose: 100.0 mg/kg/injection, schedule: Q01DX009 (ip), vehicle: saline with Tween-80 93 % of control | [5] 97 % of control | dose: 200.0 mg/kg/injection, schedule: Q01DX009 (ip), vehicle: saline with Tween-80 90 % of control | [6] 100 % of control | dose: 400.0 mg/kg/injection, schedule: Q01DX009 (ip), vehicle: saline with Tween-80 100 % of control | [7] 96 % of control

COC1=C(C)C(=O)c2c(c(COC(N)=O)c3n2CC2C3N2C)C1=O (centres undefined)
inactive: dose: 1.0 mg/kg/injection, schedule: Q01DX009 (ip), vehicle: carboxymethylcellulose (CMC) 123 % of control | dose: 1.8 mg/kg/injection, schedule: Q01DX009 (ip), vehicle: carboxymethylcellulose (CMC) 105 % of control | dose: 1.9 mg/kg/injection, schedule: Q01DX001 (ip), vehicle: other 116 % of control and 122 % of control | dose: 2.9 mg/kg/injection, schedule: Q01DX001 (ip), vehicle: other 119 % of control | dose: 4.5 mg/kg/injection, schedule: Q01DX001 (ip), vehicle: other 122 % of control | dose: 6.7 mg/kg/injection, schedule: Q01DX001 (ip), vehicle: other 123 % of control

COc1ccc(OC)c(NC(=O)Sc2ccccc2O)c1
inactive: [3] 100 % of control | [4] 96 % of control | [8] 99 % of control and 89 % of control

Nc1nc(N)nc(Cc2nc(N)nc(N)n2)n1
inactive: dose: 50.0 mg/kg/injection, schedule: Q01DX001 (ip), vehicle: carboxymethylcellulose (CMC) 90 % of control | dose: 100.0 mg/kg/injection, schedule: Q01DX001 (ip), vehicle: carboxymethylcellulose (CMC) 87 % of control | dose: 200.0 mg/kg/injection, schedule: Q01DX001 (ip), vehicle: carboxymethylcellulose (CMC) 92 % of control | dose: 400.0 mg/kg/injection, schedule: Q01DX001 (ip), vehicle: carboxymethylcellulose (CMC) 95 % of control

N#CC(C#N)=Cc1ccc(Cl)c(Cl)c1
inactive: dose: 50.0 mg/kg/injection, schedule: Q01DX001 (ip), vehicle: other 102 % of control | dose: 100.0 mg/kg/injection, schedule: Q01DX001 (ip), vehicle: other 107 % of control | [8] 92 % of control | [9] 96 % of control | dose: 200.0 mg/kg/injection, schedule: Q01DX001 (ip), vehicle: other 107 % of control | [10] 93 % of control | [11] 102 % of control | [12] 86 % of control | [13] 95 % of control

CCCCSc1ncnc2nc[nH]c12
inactive: dose: 75.0 mg/kg/injection, schedule: Q01DX001 (ip), vehicle: other 103 % of control | dose: 150.0 mg/kg/injection, schedule: Q01DX001 (ip), vehicle: other 95 % of control | dose: 300.0 mg/kg/injection, schedule: Q01DX001 (ip), vehicle: other 106 % of control

CCCCCCCCNC(=O)CCCCC(=O)NCCCCCCCC
inactive: [8] 91 % of control | [9] 90 % of control | [10] 86 % of control | [11] 90 % of control | [12] 95 % of control | [13] 101 % of control

Nc1nc2ncc(CNc3ccc(C(=O)NC(CCC(=O)O)C(=O)O)cc3F)nc2c(=O)[nH]1 (centres undefined)
inactive: dose: 50.0 mg/kg/injection, schedule: Q01DX001 (ip), vehicle: saline 109 % of control | dose: 100.0 mg/kg/injection, schedule: Q01DX001 (ip), vehicle: saline 105 % of control

COc1ccc([N+](=O)[O-])cc1NC(=O)Oc1ccc(F)cc1Cl
inactive: [4] 108 % of control | [8] 111 % of control | [10] 90 % of control

CC(N)(C(=O)O)c1ccccc1 (centres undefined)
inactive: dose: 50.0 mg/kg/injection, schedule: Q04DX003 (ip), vehicle: saline 96 % of control | [1] 89 % of control | [2] 102 % of control

CS(=O)(=O)O/C=C1/CCOC1=O
inactive: dose: 12.5 mg/kg/injection, schedule: Q01DX009 (ip), vehicle: water 105 % of control | dose: 25.0 mg/kg/injection, schedule: Q01DX009 (ip), vehicle: water 106 % of control
